# In patent US9371292B2, “Quinazoline derivative, preparation method therefor, intermediate, composition and application thereof” (SHANGHAI PHARMACEUTICALS HOLDINGS CO., LTD., priority 2011, dated 2016):
# How the values were obtained:
# A431 cell = test: Proliferation inhibition, A431 cells (CellTiter-Glo); assay type: cell-based; details: Homo sapiens, A-431, 48 hours
# Description: (§1) This example is to determine the proliferation inhibitory activity against wide type of high expression cell lines A431 of EGFR and mutant cell lines NCI-H1975^L858RT790M, the proliferation inhibitory activity in cell-based level of compound is expressed by IC50. The test method is as follows: both cell lines are purchased from American type culture collection (ATCC). The cells are seeded in a white and opaque 384-well culture plate with a proper concentration (A431: 20000 cells/ml medium; H1975: 15000 cells/ml medium), cultured at 37° C. with 5% CO2 for 24 hrs, a series of medicine with gradient concentration is added, generally 10 concentrations, cultured for another 48 hours under the previous conditions. The assays of the proliferation inhibitory activity against the A431 and H1975 cell of the test compounds are performed by the CellTiter-Glo Luminescent Cell Viability Assay and calculate the proliferation inhibitory activity of compound with different concentrations. CellTiter-Glo Luminescent Cell Viability Assay is purchased from Promega. Fit the data of proliferation inhibitory activity against A431 and H1975 of compounds with different concentrations with 4-parameter equation.
# EGFR tyrosine kinase = biological target: T1, EGFR tyrosine kinase (Homo sapiens, UniProt P00533); test: HTRF assay, inhibition of EGFR tyrosine kinase; assay type: biochemical; details: HTRF method
# T1 construct: purchased Sigma Aldrich
# T1 sequence (P00533 25-1210): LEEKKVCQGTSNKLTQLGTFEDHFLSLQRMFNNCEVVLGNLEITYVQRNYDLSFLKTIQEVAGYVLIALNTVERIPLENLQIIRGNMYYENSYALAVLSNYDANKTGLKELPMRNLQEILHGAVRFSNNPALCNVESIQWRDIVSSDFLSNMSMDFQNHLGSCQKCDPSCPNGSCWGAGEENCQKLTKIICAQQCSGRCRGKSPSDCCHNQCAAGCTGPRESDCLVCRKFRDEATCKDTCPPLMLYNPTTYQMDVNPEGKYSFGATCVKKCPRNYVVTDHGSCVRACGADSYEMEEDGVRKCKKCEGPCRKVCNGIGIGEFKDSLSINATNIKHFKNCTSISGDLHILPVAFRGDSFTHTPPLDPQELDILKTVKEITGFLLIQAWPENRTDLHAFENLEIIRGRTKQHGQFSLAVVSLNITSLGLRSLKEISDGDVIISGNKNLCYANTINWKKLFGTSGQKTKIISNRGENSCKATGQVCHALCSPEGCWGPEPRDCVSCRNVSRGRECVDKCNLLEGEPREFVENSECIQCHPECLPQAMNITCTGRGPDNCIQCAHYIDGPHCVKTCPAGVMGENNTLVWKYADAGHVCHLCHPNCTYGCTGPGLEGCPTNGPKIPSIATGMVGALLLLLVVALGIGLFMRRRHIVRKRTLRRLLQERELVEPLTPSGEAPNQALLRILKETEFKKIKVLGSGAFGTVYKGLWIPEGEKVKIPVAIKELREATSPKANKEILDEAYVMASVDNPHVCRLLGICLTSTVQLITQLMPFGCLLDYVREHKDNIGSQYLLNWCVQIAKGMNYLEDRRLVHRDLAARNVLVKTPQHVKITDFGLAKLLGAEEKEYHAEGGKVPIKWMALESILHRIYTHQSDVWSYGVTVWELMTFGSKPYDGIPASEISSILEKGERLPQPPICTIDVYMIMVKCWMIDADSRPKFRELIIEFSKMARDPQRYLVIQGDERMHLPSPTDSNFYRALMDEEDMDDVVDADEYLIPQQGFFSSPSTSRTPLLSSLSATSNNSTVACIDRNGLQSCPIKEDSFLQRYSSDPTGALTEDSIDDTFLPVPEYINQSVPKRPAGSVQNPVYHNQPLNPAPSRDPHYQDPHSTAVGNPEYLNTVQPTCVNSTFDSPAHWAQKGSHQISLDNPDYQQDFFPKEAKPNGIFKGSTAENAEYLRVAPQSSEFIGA
# Description: The activity of inhibitory against the kinase of the test compound is expressed by IC50. The assays are performed by Homogeneous time-resolved fluorescence (HTRF) method which is as follows: a series of synthesized analogues with gradient concentration are incubated for 5 minutes in enzymatic solution with specific concentration (for EGFR) at room temperature. Then proper amount of substrate and ATP are added into the reaction mixture to start the enzyme reaction. The assays of the specific concentration of compound is measured by Flexstation III of Molecular device company after the stop buffer and detecting liquid are added to the enzyme reaction system and hatch at room temperature for 1 hour. And the activity of inhibitory against the kinase of the test compound with different concentration will be calculated, then according to the 4-parameter equation, fit the inhibitory activity of the test compound with different concentration to get the IC50. EGFR is purchased from Sigma Aldrich. The HTRF KinEASE-TK is purchased from Cisbio Bioassays. ATP is purchased from Sigma Aldrich.
# [1] = test system: NCI-H1975 L858R T790M cell; test: Proliferation inhibition, H1975 cells (CellTiter-Glo); assay type: cell-based; details: Homo sapiens, 48 hours
# Description: as §1
Compound,IC50 (A431 cell) [µM],IC50 (EGFR tyrosine kinase) [nM],IC50 [1] [µM]
"COc1cc2ncnc(Nc3ccc(F)c(Cl)c3)c2cc1NC(=O)/C(F)=C/CN1CCOCC1 [Compound 22-1, (Z)-N-(4-((3-chloro-4-fluorophenyl)amino)-7-methoxyquinazolin-6-yl)-2-fluoro-4-morpholinobut-2-enamide]",8.1,0.53,3.7
"COc1cc2ncnc(Nc3ccc(F)c(Cl)c3)c2cc1NC(=O)/C(F)=C\CN1CCOCC1 [Compound 22-2, (E)-N-(4-((3-chloro-4-fluorophenyl)amino)-7-methoxyquinazolin-6-yl)-2-fluoro-4-morpholinobut-2-enamide]",2.9,0.3,2.4
"C=C(F)C(=O)Nc1cc2c(Nc3ccc(Br)cc3F)ncnc2cc1OCCCN1CCOCC1 [Compound 23, N-[4-(4-Bromo-2-fluoro-phenylamino)-7-(3-morpholin-4-yl-propoxy)-quinazolin-6-yl]-2-fluoro-acrylamide]",1.3,1.6,3
"C=C(F)C(=O)Nc1cc2c(Nc3ccc(F)c(Cl)c3F)ncnc2cc1OCCCN1CCOCC1 [Compound 24, N-[4-(3-chloro-2,4-difluoro-phenylamino)-7-(3-morpholin-4-yl-propoxy)-quinazolin-6-yl]-2-fluoro-acrylamide]",1.3,0.19,2.2
"C#Cc1cccc(Nc2ncnc3cc(OCCCN4CCOCC4)c(NC(=O)C(=C)F)cc23)c1 [Compound 25, N-[4-(3-ethynyl-phenylamino)-7-(3-morpholin-4-yl-propoxy)-quinazolin-6-yl]-2-fluoro-acrylamide]",1.2,0.19,1.9
"C=C(F)C(=O)Nc1cc2c(Nc3cccc(Cl)c3F)ncnc2cc1OCCCN1CCOCC1 [Compound 26, N-[4-(3-chloro-2-fluoro-phenylamino)-7-(3-morpholin-4-yl-propoxy)-quinazolin-6-yl]-2-fluoro-acrylamide]",4.5,0.35,5.4
"C=C(F)C(=O)Nc1cc2c(Nc3cccc(Br)c3)ncnc2cc1OCCCN1CCOCC1 [Compound 28, N-[4-(3-bromo-phenylamino)-7-(3-morpholin-4-yl-propoxy)-quinazolin-6-yl]-2-fluoro-acrylamide]",29,0.32,1.4
"C=C(F)C(=O)Nc1cc2c(Nc3ccc(OCc4cccc(F)c4)c(Cl)c3)ncnc2cc1OCCCN1CCOCC1 [Compound 29, N-[4-[3-chloro-4-(3-fluoro-benzyloxy)-phenylamino]-7-(3-morpholin-4-yl-propoxy)-quinazolin-6-yl]-2-fluoro-acrylamide]",5.9,3.3,1.9
"C=C(F)C(=O)Nc1cc2c(Nc3ccc(Cl)c(Cl)c3F)ncnc2cc1OCCCN1CCOCC1 [Compound 30, N-[4-(3,4-dichloro-2-fluoro-phenylamino)-7-(3-morpholin-4-yl-propoxy)-quinazolin-6-yl]-2-fluoro-acrylamide]",0.52,0.22,1.5
"C=C(F)C(=O)Nc1cc2c(Nc3ccc(F)cc3F)ncnc2cc1OCCCN1CCOCC1 [Compound 31, N-[4-(2,4-difluoro-phenylamino)-7-(3-morpholin-4-yl-propoxy)-quinazolin-6-yl]-2-fluoro-acrylamide]",6.5,1.4,6
"C=C(F)C(=O)Nc1cc2c(Nc3ccc(F)c(F)c3F)ncnc2cc1OCCCN1CCOCC1 [Compound 32, N-[7-(3-morpholin-4-yl-propoxy)-4-(2,3,4-trifluoro-phenylamino)-quinazolin-6-yl]-2-fluoro-acrylamide]",4.2,0.72,5.6
"C=C(Cl)C(=O)Nc1cc2c(Nc3ccc(F)c(Cl)c3F)ncnc2cc1OCCCN1CCOCC1 [Compound 34, N-[4-(3-chloro-2,4-difluoro-phenylamino)-7-(3-morpholin-4-yl-propoxy)-quinazolin-6-yl]-2-chloro-acrylamide]",> 100,0.65,5.2
"C=C(Cl)C(=O)Nc1cc2c(Nc3ccc(F)c(Cl)c3)ncnc2cc1OCCCN1CCOCC1 [Compound 35, N-[4-(3-chloro-4-fluoro-phenylamino)-7-(3-morpholin-4-yl-propoxy)-quinazolin-6-yl]-2-chloro-acrylamide]",> 100,0.97,8.5
"C=C(F)C(=O)Nc1cc2c(Nc3ccc(Cl)c(OC)c3)ncnc2cc1OCCCN1CCOCC1 [Compound 37, N-[4-(4-chloro-3-methoxy-phenylamino)-7-(3-morpholin-4-yl-propoxy)-quinazolin-6-yl]-2-fluoro-acrylamide]",> 100,4.7,1.9
"C=C(F)C(=O)Nc1cc2c(Nc3ccc(Br)c(Cl)c3F)ncnc2cc1OCCCN1CCOCC1 [Compound 38, N-[4-(4-bromo-3-chloro-2-fluoro-phenylamino)-7-(3-morpholin-4-yl-propoxy)-quinazolin-6-yl]-2-fluoro-acrylamide]",0.18,0.35,1.1
"C=C(F)C(=O)Nc1cc2c(Nc3ccc(F)c(Cl)c3)ncnc2cc1OCCCN1CCCCC1 [Compound 40, N-[4-(3-chloro-4-fluoro-phenylamino)-7-(3-piperidin-l-yl-propoxy)-quinazolin-6-yl]-2-fluoro-acrylamide]",1.3,1,3.4
"C=C(F)C(=O)Nc1cc2c(Nc3ccc(F)c(Cl)c3)ncnc2cc1OCCCN(C)C [Compound 42, N-[4-(3-chloro-4-fluoro-phenylamino)-7-(3-dimethylamino-propoxy)-quinazolin-6-yl]-2-fluoro-acrylamide]",0.53,0.55,2.4
"C=C(F)C(=O)Nc1cc2c(Nc3ccc(F)c(Cl)c3)ncnc2cc1OCCCN1CCCC1 [Compound 43, N-[4-(3-chloro-4-fluoro-phenylamino)-7-(3-pyrrolidin-l-yl-propoxy)-quinazolin-6-yl]-2-fluoro-acrylamide]",1.68,1.3,3.4
"C=C(F)C(=O)Nc1cc2c(Nc3ccc(F)c(Cl)c3)ncnc2cc1OCCCN1CCN(C)CC1 [Compound 44, N-{4-(3-chloro-4-fluoro-phenylamino)-7-[3-(4-methyl-piperazin-1-yl)-propoxy]-quinazolin-6-yl}-2-fluoro-acrylamide]",0.53,0.29,3.7
"C=C(F)C(=O)Nc1cc2c(Nc3ccc(F)c(Cl)c3F)ncnc2cc1OCC1CCC1 [Compound 47, N-[4-(3-chloro-2,4-difluoro-phenylamino)-7-cyclobutylmethoxy-quinazolin-6-yl]-2-fluoro-acrylamide]",14,1.88,1.5
"C=C(F)C(=O)Nc1cc2c(Nc3ccc(F)c(Cl)c3F)ncnc2cc1OCC1CC1 [Compound 48, N-[4-(3-chloro-2,4-difluoro-phenylamino)-7-cyclopropylmethoxy-quinazolin-6-yl]-2-fluoro-acrylamide]",13,0.65,1.8
"C=C(F)C(=O)Nc1cc2c(Nc3ccc(F)c(Cl)c3F)ncnc2cc1O[C@@H]1CCN(C)C1 [Compound 50, (R)-N-[4-(3-chloro-2,4-difluoro-phenylamino)-7-(1-methyl-pyrrolidin-3-yloxy)-quinazolin-6-yl]-2-fluoro-acrylamide]",15,5.5,2.4
"C=C(F)C(=O)Nc1cc2c(Nc3ccc(F)c(Cl)c3F)ncnc2cc1O[C@H]1CCN(C)C1 [Compound 51, (S)-N-[4-(3-chloro-2,4-difluoro-phenylamino)-7-(1-methyl-pyrrolidin-3-yloxy)-quinazolin-6-yl]-2-fluoro-acrylamide]",20,4.9,7.3
"C=C(F)C(=O)Nc1cc2c(Nc3cccc(Br)c3)ncnc2cc1OC [Compound 52, N-[4-(3-bromo-phenylamino)-7-methoxy-quinazolin-6-yl]-2-fluoro-acrylamide]",1.6,0.22,0.47
"C=C(F)C(=O)Nc1cc2c(Nc3cccc(Br)c3)ncnc2cc1OCC [Compound 53, N-[4-(3-bromo-phenylamino)-7-ethoxy-quinazolin-6-yl]-2-fluoro-acrylamide]",36,0.36,1
"C=C(F)C(=O)Nc1cc2c(Nc3cccc(C(F)(F)F)c3)ncnc2cc1OC [Compound 54, N-[7-methoxy-4-(3-trifluoromethyl-phenylamino)-quinazolin-6-yl]-2-fluoro-acrylamide]",3.8,1.1,13
